Assay in all cases: biochemical
The target of one assay is DRB1*1302 (Homo sapiens, UniProt P01903+P01911, A100E/A169T/K41T/L162R/M171V/P40S/Q125H/Q178H/Q39Y/Q99D/R42S/S66N/T262R/V115G/W38E/Y61H). Format: binding.
The target in the next assay is DRB1*1501 (Homo sapiens, UniProt P01903+P01911). Format: binding.
The target of the next assay is DRB1*1101 (Homo sapiens, UniProt P01903+P01911, A100R/A169T/A87E/I96F/K41T/L162R/M171V/P40S/Q125H/Q178H/Q39Y/Q99D/R42S/S66Y/T262R/V115G/W38E). The settings on record: Binding affinity DRB1 *1101.
The target in the next assay is DR1 (DRB1*0101) (Homo sapiens, UniProt P01903+P01911, A100R/D57E/F55L/F60I/F76Y/I96L/L162R/M171V/P40L/Q125E/R42F/V115G/Y59C). Format: binding.
A further assay concerns the target DR7 (DRB1*0701) (Homo sapiens, UniProt P01903+P01911, A100R/A102G/A103Q/D57E/D86V/E43K/F76Y/K127E/L162R/M171V/P40G/Q125H/Q99D/R33Q/R42Y/R54Q/S133A/S66F/T210M/V115G/Y107V/Y59L/Y89S). Format: binding.
The target of the next assay is DRB1*0901 (Homo sapiens, UniProt P01903+P01911, A100R/A103E/D57H/D86V/F55Y/F60I/F76Y/I96F/K127E/L162R/M171V/P40D/Q125H/Q99R/R33Q/R42F/S133A/S66N/T210M/V115G/W38K/Y107V/Y59G/Y89S). Format: binding.
In the next assay the target is DRB5*0101 (Homo sapiens, UniProt P01903+Q30154). The note with it: Binding affinity DRB5 *0101.
The next assay concerns the target DRB1*0802 (Homo sapiens, UniProt P01903+P01911, A100R/A103L/A169T/F76Y/H45Y/I96F/K41T/L162R/M171V/P40S/Q125H/Q178H/Q39Y/Q99D/R218S/R42G/S66Y/V115G/W38E). Format: binding.
The target in another assay is DRB1*0301 (Homo sapiens, UniProt P01903+P01911, A100K/A102G/A103R/A169T/F55Y/I96L/K41T/L162R/M171V/P40S/Q125H/Q178H/Q39Y/R42S/S66N/T106N/T262R/W38E/Y61H). It is filed as binding.
The target of another assay is DRB1*1201 (Homo sapiens, UniProt P01903+P01911, A100R/A169T/D57E/D86V/F55L/H45Y/K41T/L162R/M171V/P40S/Q125H/Q178H/Q39Y/Q99D/R42G/S66L/T262R/V114A/V67L/W38E/Y59H/Y61H/Y89S). Format: binding.
For another assay, the target named is DR4w4 (DRB1*0401) (Homo sapiens, UniProt P01903+P01911, A100K/A169T/F76Y/I96L/K127E/L162R/M171V/N62H/P40V/Q125Y/R42H/S133A/S149N/S66Y/V115G/V209L/W38E). Format: binding.
For a further assay, the target named is DRB4*0101 (Homo sapiens, UniProt P01903+P13762, G164S). Format: binding.

No end group written: not given here. Some results are limits rather than exact numbers.

Chain of DRB1*0301 (P01903 26-254 limits assumed, other chains not shown): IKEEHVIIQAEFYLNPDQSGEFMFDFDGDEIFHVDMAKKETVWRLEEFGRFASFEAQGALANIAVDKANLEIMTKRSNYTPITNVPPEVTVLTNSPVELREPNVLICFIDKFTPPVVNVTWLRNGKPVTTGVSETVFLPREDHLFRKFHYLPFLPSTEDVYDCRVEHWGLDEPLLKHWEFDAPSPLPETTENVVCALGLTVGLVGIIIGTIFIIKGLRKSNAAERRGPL
Chain of DRB1*1101 (P01903 26-254 limits assumed, other chains not shown): as above
Chain of DRB1*1302 (P01903 26-254 limits assumed, other chains not shown): as above

Regarding TVTFVTEQQQQMFLG [Peptide 90.0210], the IC50 against DRB1*1302 is > 20 µM; against DRB1*1501 it was > 20 µM; on DRB1*1101, > 20 µM; on DR1 (DRB1*0101), 1.95 µM; at DR7 (DRB1*0701), > 20 µM; against DRB1*0901 it was > 20 µM. The IC50 on DRB5*0101 was > 20 µM; on DRB1*0802, 6.02 µM; on DRB1*0301, 0.041 µM; on DRB1*1201, 2.77 µM.

In the case of `CC[C@H](C)[C@H](NC(=O)CNC(=O)[C@@H](NC(=O)[C@H](CCCCN)NC(=O)[C@H](Cc1ccc(O)cc1)NC(=O)[C@H](Cc1c[nH]c2ccccc12)NC(=O)[C@H](Cc1ccc(O)cc1)NC(=O)[C@@H](N)CC(C)C)[C@@H](C)O)C(=O)N[C@@H](CO)C(=O)N[C@@H](CC(N)=O)C(=O)N[C@H](C(=O)N[C@@H](CO)C(=O)N[C@@H](CCC(=O)O)C(=O)N[C@H](C(=O)N[C@@H](Cc1ccc(O)cc1)C(=O)O)C(C)C)[C@@H](C)CC` [Peptide 89.0009], the IC50 stood at 0.319 µM at DRB1*1302; 6.28 µM at DRB1*1101; 0.041 µM at DR1 (DRB1*0101); 0.019 µM at DR7 (DRB1*0701); 0.631 µM at DRB1*0901; 0.634 µM on DRB5*0101. Besides, the 50% inhibitory concentration (IC50) is 1.44 µM against DRB1*0802, > 20 µM at DRB1*0301, 4.62 µM at DRB1*1201 and 0.02 µM against DR4w4 (DRB1*0401).

For the compound `CC[C@H](C)[C@H](NC(=O)[C@H](CCC(N)=O)NC(=O)[C@@H](N)CCCNC(=N)N)C(=O)N[C@@H](Cc1ccc(O)cc1)C(=O)N[C@H](C(=O)N[C@@H](C)C(=O)N[C@@H](C)C(=O)N[C@@H](Cc1ccccc1)C(=O)N[C@H](C(=O)N[C@H](C(=O)N[C@@H](CCC(N)=O)C(=O)N[C@@H](C)C(=O)N[C@@H](C)C(=O)N[C@@H](C)C(=O)N[C@@H](CCC(=O)O)C(=O)O)C(C)C)[C@@H](C)O)C(C)C` [Peptide 68.0134], the IC50 is > 20 µM against DRB1*0301 and 0.609 µM at DRB1*1201.

For `CC[C@H](C)[C@H](NC(=O)[C@H](Cc1c[nH]c2ccccc12)NC(=O)[C@@H](NC(=O)[C@@H](NC(=O)[C@H](CO)NC(=O)[C@H](CC(C)C)NC(=O)[C@@H](N)[C@@H](C)O)C(C)C)[C@@H](C)O)C(=O)NCC(=O)N[C@@H](C)C(=O)N[C@@H](C)C(=O)N1CCC[C@H]1C(=O)N[C@@H](CC(C)C)C(=O)N[C@H](C(=O)N[C@@H](CC(C)C)C(=O)N[C@@H](CO)C(=O)O)[C@@H](C)CC` [Peptide 68.0058], the IC50 is > 20 µM against DRB1*0301 and 0.055 µM at DRB1*1201.

For `CC(C)C[C@H](NC(=O)[C@@H]1CCCN1C(=O)[C@H](Cc1c[nH]cn1)NC(=O)[C@@H]1CCCN1C(=O)[C@H](Cc1ccccc1)NC(=O)[C@H](CO)NC(=O)[C@H](Cc1c[nH]cn1)NC(=O)[C@H](CO)NC(=O)[C@@H](NC(=O)[C@H](CCC(N)=O)NC(=O)[C@H](Cc1ccccc1)NC(=O)[C@@H](NC(=O)[C@H](CCC(N)=O)NC(=O)CN)C(C)C)C(C)C)C(=O)N[C@@H](Cc1ccc(O)cc1)C(=O)O` [Peptide 68.0069], the IC50 against DRB1*0301 was > 20 µM; against DRB1*1201, 0.557 µM.

`CC[C@H](C)[C@H](NC(=O)[C@H](CS)NC(=O)[C@H](Cc1c[nH]cn1)NC(=O)[C@H](C)N)C(=O)N[C@@H](CCCNC(=N)N)C(=O)N[C@@H](CC(N)=O)C(=O)N[C@@H](CCCCN)C(=O)N[C@@H](CO)C(=O)N[C@H](C(=O)N[C@H](C(=O)N[C@@H](CC(C)C)C(=O)N[C@@H](CC(C)C)C(=O)NCC(=O)N[C@@H](CCCNC(=N)N)C(=O)N[C@@H](Cc1c[nH]cn1)C(=O)O)[C@@H](C)CC)C(C)C` [Peptide 68.0066]: the IC50 on DRB1*0301 was > 20 µM; against DRB1*1201, 0.16 µM.

`CC(C)C[C@H](NC(=O)[C@@H](NC(=O)[C@H](CCC(=O)O)NC(=O)[C@H](C)NC(=O)[C@H](C)NC(=O)[C@H](C)NC(=O)[C@H](CCC(N)=O)NC(=O)[C@@H](NC(=O)[C@@H](NC(=O)[C@H](Cc1ccccc1)NC(=O)[C@H](C)NC(=O)[C@H](C)NC(=O)[C@@H](N)C(C)C)[C@@H](C)O)C(C)C)[C@@H](C)O)C(=O)N[C@@H](CO)C(=O)N[C@@H](CCC(=O)O)C(=O)O` [Peptide 68.0136]: the IC50 on DRB1*0301 is > 20 µM; against DRB1*1201 it was 4.46 µM.

Turning to `CSCC[C@H](NC(=O)CNC(=O)CNC(=O)[C@H](CCCNC(=N)N)NC(=O)[C@@H](NC(=O)[C@H](CCC(N)=O)NC(=O)[C@H](C)NC(=O)[C@@H](NC(=O)[C@@H](NC(=O)[C@H](CC(C)C)NC(=O)[C@H](Cc1c[nH]cn1)NC(=O)[C@H](Cc1ccc(O)cc1)NC(=O)[C@H](CCCCN)NC(=O)[C@H](Cc1ccccc1)NC(=O)[C@@H](N)CCSC)[C@@H](C)O)C(C)C)C(C)C)C(=O)O` [Peptide 68.0119], the half-inhibitory concentration (IC50) at DRB1*0301 was > 20 µM; at DRB1*1201 it was 0.482 µM.

Consider `CC[C@H](C)[C@H](NC(=O)[C@H](CC(C)C)NC(=O)[C@H](CCCCN)NC(=O)[C@H](CCCCN)NC(=O)[C@@H](N)Cc1ccc(O)cc1)C(=O)N[C@@H](CCSC)C(=O)N[C@@H](Cc1ccc(O)cc1)C(=O)N[C@@H](CO)C(=O)N[C@@H](C)C(=O)N[C@@H](Cc1c[nH]cn1)C(=O)N[C@@H](CC(=O)O)C(=O)N[C@H](C(=O)N[C@H](C(=O)N[C@H](C(=O)N[C@@H](CO)C(=O)O)C(C)C)[C@@H](C)O)[C@@H](C)O` [Peptide 68.0049], for which the IC50 on DRB1*0301 was > 20 µM; against DRB1*1201 it was 0.928 µM.

For the compound `CC[C@H](C)[C@H](NC(=O)[C@H](CO)NC(=O)[C@@H](NC(=O)CN)C(C)C)C(=O)N[C@@H](Cc1c[nH]c2ccccc12)C(=O)N[C@@H](CC(N)=O)C(=O)N1CCC[C@H]1C(=O)N[C@H](C(=O)N[C@@H](CC(C)C)C(=O)N[C@@H](CC(C)C)C(=O)N[C@@H](Cc1c[nH]c2ccccc12)C(=O)N[C@@H](CCC(N)=O)C(=O)N1CCC[C@H]1C(=O)N[C@H](C(=O)N1CCC[C@H]1C(=O)O)[C@@H](C)CC)[C@@H](C)CC` [Peptide 68.0034], the IC50 against DRB1*0301 was > 20 µM; against DRB1*1201, 3.9 µM.

For the compound NCILLYGAANTGKSL [Peptide 89.0017], the IC50 on DRB1*1302 is 2.12 µM; on DRB1*1101, 5.78 µM; on DRB4*0101 it was 0.525 µM; on DR1 (DRB1*0101) it was 0.081 µM; against DR7 (DRB1*0701), > 20 µM; on DRB5*0101, 0.442 µM. The IC50 at DRB1*0802 was 2.69 µM; at DRB1*0301, > 20 µM; on DRB1*1201, > 20 µM.

`CSCC[C@H](NC(=O)[C@@H]1CCCN1C(=O)[C@H](CC(=O)O)NC(=O)[C@@H](N)Cc1ccc(O)cc1)C(=O)N[C@@H](Cc1ccccc1)C(=O)N[C@@H](CCCCN)C(=O)N[C@@H](Cc1ccc(O)cc1)C(=O)N[C@@H](Cc1c[nH]cn1)C(=O)N[C@@H](CC(C)C)C(=O)N[C@H](C(=O)N[C@H](C(=O)N[C@@H](C)C(=O)N[C@@H](CCC(N)=O)C(=O)N[C@H](C(=O)N[C@@H](CCCNC(=N)N)C(=O)O)C(C)C)C(C)C)[C@@H](C)O` [Peptide 68.0117]: the concentration for half-maximal inhibition (IC50) against DRB1*0301 was > 20 µM; on DRB1*1201, 0.24 µM.

Turning to `CC(C)C[C@H](NC(=O)[C@H](CO)NC(=O)[C@H](CC(C)C)NC(=O)[C@H](CO)NC(=O)[C@H](C)NC(=O)[C@H](C)NC(=O)[C@H](CCCNC(=N)N)NC(=O)[C@H](C)NC(=O)[C@H](CC(C)C)NC(=O)[C@H](CC(C)C)NC(=O)[C@H](CC(C)C)NC(=O)[C@@H]1CCCN1C(=O)[C@H](C)N)C(=O)NCC(=O)N[C@@H](Cc1ccccc1)C(=O)O` [Peptide 68.0020], the IC50 against DRB1*0301 is > 20 µM; at DRB1*1201, 0.225 µM.

Turning to `CSCC[C@H](NC(=O)[C@@H]1CCCN1C(=O)[C@@H](N)CC(=O)O)C(=O)N[C@@H](Cc1ccccc1)C(=O)N[C@@H](CCCCN)C(=O)N[C@@H](Cc1ccc(O)cc1)C(=O)N[C@@H](Cc1c[nH]cn1)C(=O)N[C@@H](CC(C)C)C(=O)N[C@H](C(=O)N[C@H](C(=O)N[C@@H](C)C(=O)N[C@@H](CCC(N)=O)C(=O)N[C@H](C(=O)N[C@@H](CCCNC(=N)N)C(=O)NCC(=O)O)C(C)C)C(C)C)[C@@H](C)O` [Peptide 68.0118], the IC50 on DRB1*0301 was > 20 µM; on DRB1*1201, 0.47 µM.

Usually IC50 stands for the concentration needed to halve the response being measured. The low end stands for greater potency, the high end for weaker potency.

For the origin of these results see patent US9340577B2, “HLA binding motifs and peptides and their uses” (priority 1992, dated 2016).
